Assay results: patent publication US11472798B2 (Mission Therapeutics Limited, priority 2014, dated 2022)
pIC50: −log10 of the molar value.

Target: T1, UCHL1 (Homo sapiens, UniProt P09936)
T1 construct: made in house; host or cells: HEK293T
T1 sequence (P09936 1-223): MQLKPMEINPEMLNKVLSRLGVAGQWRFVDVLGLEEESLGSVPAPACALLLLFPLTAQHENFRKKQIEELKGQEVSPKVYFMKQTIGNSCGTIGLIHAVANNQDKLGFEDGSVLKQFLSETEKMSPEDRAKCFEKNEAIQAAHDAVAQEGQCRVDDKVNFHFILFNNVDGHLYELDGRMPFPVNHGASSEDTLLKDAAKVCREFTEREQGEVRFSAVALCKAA
Assay: UCHL1 biochemical IC50 assay (fluorescence polarisation)
Conditions: 30 min enzyme/compound pre-incubation at room temp, read after 2 hr incubation, read-out: Activity range (UCHL1 biochemical IC50 assay)
Source text: Biological Activity of Compounds of the Invention Abbreviations: TAMRA carboxytetramethylrhodamine PCR polymerase chain reaction PBS phosphate buffered saline EDTA ethylenediaminetetraacetic acid Tris 2-amino-2-(hydroxymethyl)-1,3-propanediol NP-40 Nonidet P-40, octylphenoxypolyethoxyethanol BSA bovine serum albumin In Vitro UCHL1 Inhibition Assay Expression and Purification of UCHL1
The UCHL1 construct was PCR amplified and cloned into a pFLAG-CMV-6a vector (Sigma-Aldrich) with an N-terminal FLAG tag. HEK293T cells were transfected with FLAG-UCHL1 using TransIT-LT1 transfection reagent (Mirus) according to the manufacturer's instructions. Cells were harvested 40 hours after transfection. Cells were washed once with PBS and scraped in lysis buffer (50 mM Tris, pH 7.5, 150 mM NaCl, 3 mM EDTA, 0.5% NP40, 10% glycerol, 5 mM beta-mercaptoethanol, protease inhibitors (complete mini, Roche) and phosphatase inhibitors (PhosSTOP mini, Roche). Lysates were incubated for 30 min on ice and centrifuged at 1200 rpm for 10 min at 4° C. Soluble supernatant was added to FLAG affinity resin (EZview Rad ANTI-FLAG M2 affinity gel, Sigma-Aldrich) equilibrated in low salt buffer (20 mM Tris, pH 7.5, 150 mM NaCl, 0.5 mM EDTA, 5 mM beta-mercaptoethanol) and incubated at 4° C. for 3 hours rotating. The resin was spun at 2000 rpm for 2 min and the supernatant was removed. The resin was washed two times with low salt buffer and one time with high salt buffer (20 mM Tris, pH 7.5, 500 mM NaCl, 0.5 mM EDTA, 5 mM beta-mercaptoethanol, protease inhibitors (complete mini, Roche) and phosphatase inhibitors (PhosSTOP mini, Roche). To elute the bound UCHL1, elution buffer (10 mM Tris, pH 7.5, 150 mM NaCl, 0.5 mM FDTA, 10% glycerol, 0.5% NP40, 5 mM beta-mercaptoethanol, 0.15 mg/ml 3×FLAG peptide (Sigma-Aldrich)) was added to the resin and incubated at 4° C. for 2.5 hours rotating. The resin was centrifuged at 4000 rpm for 30 seconds, and the supernatant containing purified FLAG-UCHL1 was removed and stored at −80° C.
UCHL1 Biochemical IC50 Assay
Dilution plates were prepared at 21 times the final concentration (2100 μM for a final concentration of 100 µM) in 50% DMSO in a 96-well polypropylene V-bottom plate (Greiner #651201). A typical 8-point dilution series to be 100, 30, 10, 3, 1, 0.3, 0.1, 0.03 μM final. Reactions were performed in duplicate in black 384 well plates (small volume, Greiner 784076) in a final reaction volume of 21 μl. Either 1 μl of 50% DMSO or diluted compound was added to the plate. UCHL1 was diluted in reaction buffer (20 mM Tris, pH 7.5, 100 mM NaCl, 0.05% Tween 20, 0.5 mg/ml BSA, 5 mM—beta mercaptoethanol) to the equivalent of 0.05 μl/well and 10 μl of diluted UCHL1 was added to the compound. Enzyme and compound were incubated for 30 min at room temp. Reactions were initiated by the addition of 50 nM of TAMRA labelled peptide linked to ubiquitin via an iso-peptide bond as fluorescence polarisation substrate. Reactions were read immediately after addition of substrate and following a 2 hr incubation at room temperature. Readings were performed on a Pherastar Plus (BMG Labtech). λ Excitation 540 nm; k Emission 590 nm.

Structure (SMILES) | pIC50
N#CN1CCC(C(=O)Nc2ccc(N3CCOCC3)cn2)C1 (stereo not drawn) [Example 28, 1-cyano-N-(5-morpholino-pyridin-2-yl)pyrrolidine-3-carboxamide] | 5.00 to 6.00
N#CN1CCC(C(=O)Nc2ccc(N3CCCCC3)cn2)C1 (stereo not drawn) [Example 29, 1-cyano-N-(5-(piperidin-1-yl)pyridin-2-yl)pyrrolidine-3-carboxamide] | 5.00 to 6.00
N#CN1CCC(C(=O)Nc2ccc(-n3ccnc3)cn2)C1 (stereo not drawn) [Example 30, N-(5-(1H-imidazol-1-yl)pyridin-2-yl)-1-cyano-pyrrolidine-3-carboxamide] | 4.52 to 5.00
N#CN1CCC(C(=O)Nc2cc(-c3ccccc3)ccn2)C1 (stereo not drawn) [Example 31, 1-cyano-N-(4-phenylpyridin-2-yl)pyrrolidine-3-carboxamide] | 5.00 to 6.00
N#CN1CCC(C(=O)Nc2ccc(-c3ccccn3)cn2)C1 (stereo not drawn) [Example 32, N-([2,3′-bipyridin]-6′-yl)-1-cyano-pyrrolidine-3-carboxamide] | 5.00 to 6.00
N#CN1CCC(C(=O)Nc2ccc(-c3cccnc3)cn2)C1 (stereo not drawn) [Example 33, N-([3,3′-bipyridin]-6-yl)-1-cyano-pyrrolidine-3-carboxamide] | 5.00 to 6.00
N#CN1CCC(C(=O)Nc2ccc(-c3ccncc3)cn2)C1 (stereo not drawn) [Example 34, N-([3,4′-bipyridin]-6-yl)-1-cyano-pyrrolidine-3-carboxamide] | 5.00 to 6.00
N#CN1CCC(C(=O)Nc2ccc(-c3ccccc3)nc2)C1 (stereo not drawn) [Example 35, 1-cyano-N-(6-phenylpyridin-3-yl)pyrrolidine-3-carboxamide] | 5.00 to 6.00
N#CN1CCC(C(=O)Nc2ccc(-c3ccccc3)nn2)C1 (stereo not drawn) [Example 36, 1-cyano-N-(6-phenyl-pyridazin-3-yl)pyrrolidine-3-carboxamide] | 4.52 to 5.00
N#CN1CCC(C(=O)Nc2cnc(-c3ccccc3)nc2)C1 (stereo not drawn) [Example 37, 1-cyano-N-(2-phenyl-pyrimidin-5-yl)pyrrolidine-3-carboxamide] | 4.52 to 5.00
N#CN1CCC(C(=O)Nc2ccc(C3CCCCC3)cn2)C1 (stereo not drawn) [Example 38, 1-cyano-N-(5-cyclohexyl-pyridin-2-yl)pyrrolidine-3-carboxamide] | 5.00 to 6.00
N#CN1CCC(C(=O)Nc2ccc3c(cnn3Cc3ccccc3)c2)C1 (stereo not drawn) [Example 39, N-(1-benzyl-1H-indazol-5-yl)-1-cyano-pyrrolidine-3-carboxamide] | 4.52 to 5.00
CCCn1cnc2cc(NC(=O)C3CCN(C#N)C3)ccc21 (stereo not drawn) [Example 40, 1-cyano-N-(1-propyl-1H-benzo[d]imidazol-5-yl)pyrrolidine-3-carboxamide] | 5.00 to 6.00
N#CN1CC[C@H](C(=O)Nc2cn(-c3ccccc3)cn2)C1 [Example 41, (S)-1-cyano-N-(1-phenyl-1H-imidazol-4-yl)pyrrolidine-3-carboxamide] | > 6.00
N#CN1CC[C@H](C(=O)Nc2cc(-c3ccccc3)[nH]n2)C1 [Example 42, (S)-1-cyano-N-(5-phenyl-1H-pyrazol-3-yl)pyrrolidine-3-carboxamide] | > 6.00
N#CN1CC[C@H](C(=O)Nc2cc(C3CCOCC3)[nH]n2)C1 [Example 43, (S)-1-cyano-N-(5-(tetrahydro-2H-pyran-4-yl)-1H-pyrazol-3-yl)pyrrolidine-3-carboxamide] | > 6.00
N#CN1CC[C@H](C(=O)Nc2cn(-c3ccccc3)nn2)C1 [Example 44, (S)-1-cyano-N-(1-phenyl-1H-1,2,3-triazol-4-yl)pyrrolidine-3-carboxamide] | 5.00 to 6.00
N#CN1CC[C@H](C(=O)Nc2ccn(-c3ccccc3)n2)C1 [Example 45, (S)-1-cyano-N-(1-phenyl-1H-pyrazol-3-yl)pyrrolidine-3-carboxamide] | 4.52 to 5.00
Cc1cccc2sc(NC(=O)[C@H]3CCN(C#N)C3)nc12 [Example 46, (S)-1-cyano-N (4-methylbenzo[d]thiazol-2-yl)pyrrolidine-3-carboxamide] | 4.52 to 5.00

Other lines, results leading:

pIC50 | Structure (SMILES)
> 6.00 | Cc1cccc2nc(NC(=O)[C@H]3CCN(C#N)C3)sc12 [Example 47, (S)-1-cyano-N-(7-methylbenzo[d]thiazol-2-yl)-pyrrolidine-3-carboxamide]
5.00 to 6.00 | N#CN1CC[C@H](C(=O)Nc2nc3c(Br)cccc3s2)C1 [Example 48, (S)-N-(4-bromobenzo[d]thiazol-2-yl)-1-cyano-pyrrolidine-3-carboxamide]
5.00 to 6.00 | N#CN1CC[C@H](C(=O)Nc2cn3ccccc3n2)C1 [Example 49, (S)-1-cyano-N-N-(imidazo[1,2-a]pyridin-2-yl)-pyrrolidine-3-carboxamide]
5.00 to 6.00 | N#CN1CC[C@H](C(=O)Nc2cn3ccc(Br)cc3n2)C1 [Example 50, (S)-N-(7-bromoimidazo[1,2-a]pyridin-2-yl)-1-cyano-pyrrolidine-3-carboxamide]
> 6.00 | N#CN1CC[C@H](C(=O)Nc2cn3cc(Br)ccc3n2)C1 [Example 51, (S)-N-(6-bromoimidazo[1,2-a]pyridin-2-yl)-1-cyano-pyrrolidine-3-carboxamide]
5.00 to 6.00 | COc1ccnc(NC(=O)[C@H]2CCN(C#N)C2)c1 [Example 53, (S)-1-cyano-N-(4-methoxypyridin-2-yl)pyrrolidine-3-carboxamide]
5.00 to 6.00 | N#CN1CC[C@H](C(=O)Nc2ccc(-c3ccccc3)cn2)C1 [Example 54, (S)-1-cyano-N-(5-phenylpyridin-2-yl)pyrrolidine-3-carboxamide]
5.00 to 6.00 | N#CN1CC[C@H](C(=O)Nc2cccc(-c3ccccc3)n2)C1 [Example 55, (S)-1-cyano-N-(6-phenylpyridin-2-yl)pyrrolidine 3-carboxamide]
4.52 to 5.00 | N#CN1CC[C@H](C(=O)Nc2ccc3cccnc3n2)C1 [Example 56, (S)-1-cyano-N-(1,8-naphthyridin-2-yl)pyrrolidine-3-carboxamide]
> 6.00 | N#CN1CC[C@H](C(=O)Nc2ncc(Cc3ccccc3)s2)C1 [Example 57, (S)-N-(5-benzylthiazol-2-yl)-1-cyanopyrrolidine-3-carboxamide]
> 6.00 | N#CN1CC[C@H](C(=O)Nc2ncc(C3CCOCC3)s2)C1 [Example 59, (S)-1-cyano-N-(5-(tetrahydro-2H-pyran-4-yl)thiazol-2-yl)pyrrolidine-3-carboxamide]
> 6.00 | Cn1nc(NC(=O)[C@H]2CCN(C#N)C2)cc1-c1ccccc1 [Example 60, (S)-1-cyano-N-(1-methyl-5-phenyl-1H-pyrazol-3-yl)pyrrolidine-3-carboxamide]
5.00 to 6.00 | COC1CCN(c2ccc(NC(=O)[C@H]3CCN(C#N)C3)nc2)CC1 [Example 61, (S)-1-cyano-N-(5-(4-methoxy-piperidin-1-yl)pyridin-2-yl)pyrrolidine-3-carboxamide]
> 6.00 | N#CN1CC[C@H](C(=O)Nc2nc3ccc(-n4ccnn4)cc3s2)C1 [Example 62, (S)-N-(6-(1H-1,2,3-triazol-1-yl)benzo[d]thiazol-2-yl)-1-cyano-pyrrolidine-3-carboxamide]
5.00 to 6.00 | N#CN1CC[C@H](C(=O)Nc2nc3ccc(-n4nccn4)cc3s2)C1 [Example 63, (S)-N-(6-(2H-1,2,3-triazol-2-yl)benzo[d]thiazol-2-yl)-1-cyano-pyrrolidine-3-carboxamide]
> 6.00 | CNC(=O)c1ccc(-c2cnc(NC(=O)[C@H]3CCN(C#N)C3)s2)cc1 [Example 64, (S)-1-cyano-N-(5-(4-(methyl-carbamoyl)phenyl)thiazol-2-yl)pyrrolidine-3-carboxamide]
> 6.00 | Cc1nc(NC(=O)[C@H]2CCN(C#N)C2)sc1CN1CCOCC1 [Example 65, (S)-1-cyano-N-(4-methyl-5-(morpholinomethyl)thiazol-2-yl)pyrrolidine-3-carboxamide]
